Values after ≈ are worked out from the molar mass of the structure shown. Like-named read-outs stand apart in the source and are kept apart here.
Assays:
Candida glabrata = test: MIC against yeast, CLSI M27 & M38 (Table 2); conditions: Nakaseomyces glabratus
C. krusei [1] = test: MIC against various species, CLSI M27 & M38 (Table 4); conditions: Pichia kudriavzevii, ATCC6258, read-out: Minimum inhibitory concentration 50%
C. parapsilosis = test: as above; conditions: Lodderomyces parapsilosis, ATCC22019, read-out: Minimum inhibitory concentration 50%
C. albicans = test: as above; conditions: Candida albicans
C. krusei [2] = test: MIC against yeast, CLSI M27 & M38 (Table 2); conditions: Pichia kudriavzevii, ATCC6258, read-out: Minimum inhibitory concentration 50%
C. auris = test: MIC against various species, CLSI M27 & M38 (Table 4); conditions: Candidozyma auris
Candida guillermondii = test: MIC against yeast, CLSI M27 & M38 (Table 2); conditions: Candida
Candida auris = test: MIC against yeast, CLSI M27 & M38 (Table 2); conditions: Candidozyma auris
Cryptococcus neoformans = test: MIC against yeast, CLSI M27 & M38 (Table 2); conditions: Cryptococcus neoformans
Candida parapsilosis = test: MIC against yeast, CLSI M27 & M38 (Table 2); conditions: for Minimum inhibitory concentration 50%: Table 2, RPMI 0.165M MOPS, 24-72 hours; for MIC: Lodderomyces parapsilosis
[3] = test system: Cryptococcus neoformans H99; test: MIC against fungal strains (Table 1); assay type: cell-based; conditions: Cryptococcus neoformans, H99, read-out: Minimum inhibitory concentration
Candida albicans 64124 = test: MIC against fungal strains (Table 1); assay type: cell-based; conditions: read-out: Minimum inhibitory concentration
Histoplasma capsulatum = test: microbe, parasite or virus in culture; assay type: cell-based; conditions: Histoplasma capsulatum, Table 3, RPMI 0.165M MOPS, 24-72 hours
Fusarium = test: MIC against various species, CLSI M27 & M38 (Table 4); assay type: cell-based; conditions: 24-72 hours
P. variotil = test: as above; assay type: cell-based, Paecilomyces variotii; conditions: Paecilomyces variotii, P. variotil QC, RPMI 0.165M MOPS, 24-72 hours, read-out: Minimum inhibitory concentration 100%
Candida albicans MYA2876 = test: MIC against fungal strains (Table 1); assay type: cell-based; conditions: Candida albicans, MYA2876, read-out: Minimum inhibitory concentration
P. variatii = test: MIC against filamentous and dimorphic fungi, CLSI M27 & M38 (Table 3); assay type: cell-based, Paecilomyces variotii; conditions: Paecilomyces variotii, P. variatii MYA-3630, RPMI 0.165M MOPS, 24-72 hours, read-out: Minimum inhibitory concentration 100%
[4] = test system: Fusarium graminearum B4-5A; test: microbe, parasite or virus in culture; assay type: cell-based; conditions: Fusarium graminearum, B45A, read-out: Minimum inhibitory concentration
Scedosporium = test: MIC against various species, CLSI M27 & M38 (Table 4); conditions: Scedosporium
L. prolificans = test: as above; conditions: Lomentospora prolificans, read-out: Minimum inhibitory concentration 100%
Coccidioldes sp. = test: microbe, parasite or virus in culture; assay type: cell-based, Coccidioides species; conditions: Coccidioides, Table 3, RPMI 0.165M MOPS, 24-72 hours
Rhodotorula pilimanae = test: MIC against fungal strains (Table 1); assay type: cell-based; conditions: Rhodotorula mucilaginosa, read-out: Minimum inhibitory concentration
B. dermatitidis = test: MIC against various B. dermatitidis isolates, CLSI M27 & M38; conditions: Blastomyces dermatitidis, RPMI 0.165M MOPS, 24-72 hours
A. furnigatus = test: MIC against various species, CLSI M27 & M38 (Table 4); conditions: Aspergillus fumigatus

Compound: OC(Cn1cncn1)(Cn1cncn1)c1ccc(F)cc1F [Fluconazole, reference compound]
- MIC (Candida glabrata; read-out: Minimum inhibitory concentration 50%, Candida glabrata CG1, RPMI 0.165M MOPS, 24-72 hours): > 64 µg/mL
- MIC (Candida glabrata; read-out: Minimum inhibitory concentration 50%, Candida glabrata CG2, RPMI 0.165M MOPS, 24-72 hours): 8 µg/mL (≈ 26.1 µM)
- MIC (Candida glabrata; read-out: Minimum inhibitory concentration 50%, Candida glabrata CG3, RPMI 0.165M MOPS, 24-72 hours): 64 µg/mL (≈ 209 µM)
- MIC (C. krusei [1]): > 16 µg/mL
- MIC (C. parapsilosis): 1 µg/mL (≈ 3.27 µM)
- MIC (C. albicans; read-out: Minimum inhibitory concentration 50%, C. albicans CA1, RPMI 0.165M MOPS, 24-72 hours): ≤ 0.125 µg/mL
- MIC (C. albicans; read-out: Minimum inhibitory concentration 50%, C. albicans CA2, RPMI 0.165M MOPS, 24-72 hours): ≤ 0.125 µg/mL
- MIC (C. albicans; read-out: Minimum inhibitory concentration 50%, C. albicans CA3, RPMI 0.165M MOPS, 24-72 hours): > 64 µg/mL
- MIC (C. krusei [2]): 16 µg/mL (≈ 52.2 µM)
- MIC (C. auris; read-out: Minimum inhibitory concentration 50%, C. auris DI17-46, RPMI 0.165M MOPS, 24-72 hours): > 64 µg/mL
- MIC (C. auris; read-out: Minimum inhibitory concentration 50%, C. auris DI17-47, RPMI 0.165M MOPS, 24-72 hours): > 64 µg/mL
- MIC (C. auris; read-out: Minimum inhibitory concentration 50%, C. auris DI17-48, RPMI 0.165M MOPS, 24-72 hours): 2 µg/mL (≈ 6.53 µM)
- MIC (Candida guillermondii; read-out: Minimum inhibitory concentration 50%, Candida guillermondii CGUI1, RPMI 0.165M MOPS, 24-72 hours): 1 µg/mL (≈ 3.27 µM)
- MIC (Candida guillermondii; read-out: Minimum inhibitory concentration 50%, Candida guillermondii CGUI2, RPMI 0.165M MOPS, 24-72 hours): 2 µg/mL (≈ 6.53 µM)
- MIC (Candida guillermondii; read-out: Minimum inhibitory concentration 50%, Candida guillermondii CGUI3, RPMI 0.165M MOPS, 24-72 hours): 2 µg/mL (≈ 6.53 µM)
- MIC (Candida auris; read-out: Minimum inhibitory concentration 50%, Candida auris CAU1, RPMI 0.165M MOPS, 24-72 hours): 2 µg/mL (≈ 6.53 µM)
- MIC (Candida auris; read-out: Minimum inhibitory concentration 50%, Candida auris CAU2, RPMI 0.165M MOPS, 24-72 hours): 1 µg/mL (≈ 3.27 µM)
- MIC (Candida auris; read-out: Minimum inhibitory concentration 50%, Candida auris CAU3, RPMI 0.165M MOPS, 24-72 hours): 0.5 µg/mL (≈ 1.63 µM)
- MIC (Candida auris; read-out: Minimum inhibitory concentration 50%, Candida auris CAU4, RPMI 0.165M MOPS, 24-72 hours): > 64 µg/mL
- MIC (Candida auris; read-out: Minimum inhibitory concentration 50%, Candida auris CAU5, RPMI 0.165M MOPS, 24-72 hours): 16 µg/mL (≈ 52.2 µM)
- MIC (Candida auris; read-out: Minimum inhibitory concentration 50%, Candida auris CAU6, RPMI 0.165M MOPS, 24-72 hours): 2 µg/mL (≈ 6.53 µM)
- MIC (Candida auris; read-out: Minimum inhibitory concentration 50%, Candida auris CAU7, RPMI 0.165M MOPS, 24-72 hours): 2 µg/mL (≈ 6.53 µM)
- MIC (Candida auris; read-out: Minimum inhibitory concentration 50%, Candida auris DI17-46, RPMI 0.165M MOPS, 24-72 hours): > 64 µg/mL
- MIC (Candida auris; read-out: Minimum inhibitory concentration 50%, Candida auris DI17-47, RPMI 0.165M MOPS, 24-72 hours): > 64 µg/mL
- MIC (Candida auris; read-out: Minimum inhibitory concentration 50%, Candida auris DI17-48, RPMI 0.165M MOPS, 24-72 hours): 2 µg/mL (≈ 6.53 µM)
- MIC (Cryptococcus neoformans; read-out: Minimum inhibitory concentration 50%, Cryptococcus neoformans CN1, RPMI 0.165M MOPS, 24-72 hours): 8 µg/mL (≈ 26.1 µM)
- MIC (Cryptococcus neoformans; read-out: Minimum inhibitory concentration 50%, Cryptococcus neoformans H99, RPMI 0.165M MOPS, 24-72 hours): 16 µg/mL (≈ 52.2 µM)
- MIC (Cryptococcus neoformans; read-out: Minimum inhibitory concentration 50%, Cryptococcus neoformans USC1597, RPMI 0.165M MOPS, 24-72 hours): 2 µg/mL (≈ 6.53 µM)
- Minimum inhibitory concentration 50% (Candida parapsilosis; Candida parapsilosis CP2): 0.5 µg/mL (≈ 1.63 µM)
- Minimum inhibitory concentration 50% (Candida parapsilosis; Candida parapsilosis CP3): 0.5 µg/mL (≈ 1.63 µM)
- MIC (Candida parapsilosis; ATCC22019, read-out: Minimum inhibitory concentration 50%): 1 µg/mL (≈ 3.27 µM)
- MIC (Candida parapsilosis; read-out: Minimum inhibitory concentration 50%): 0.5 µg/mL (≈ 1.63 µM)

Compound: C[C@@H](c1ncncc1F)[C@](O)(Cn1cncn1)c1ccc(F)cc1F [Voriconazole, reference compound]
- MIC [3]: 0.125 µg/mL (≈ 0.358 µM)
- MIC (Candida albicans 64124): > 256 µg/mL
- MIC (Histoplasma capsulatum; read-out: Minimum inhibitory concentration 100%, Histoplasma capsulatum HC1): 0.125 µg/mL (≈ 0.358 µM)
- MIC (Histoplasma capsulatum; read-out: Minimum inhibitory concentration 100%, Histoplasma capsulatum HC2): ≤ 0.03 µg/mL
- MIC (Histoplasma capsulatum; read-out: Minimum inhibitory concentration 100%, Histoplasma capsulatum HC3): ≤ 0.03 µg/mL
- MIC (Fusarium; Fusarium FO1, RPMI 0.165M MOPS, read-out: Minimum inhibitory concentration 100%): > 16 µg/mL
- Minimum inhibitory concentration 100% (Fusarium; Fusarium FO2, RPMI 0.165M MOPS): >16 µg/mL
- Minimum inhibitory concentration 100% (Fusarium; Fusarium FS1, RPMI 0.165M MOPS): >16 µg/mL
- MIC (P. variotil): 0.125 µg/mL (≈ 0.358 µM)
- MIC (Candida albicans MYA2876): 0.125 µg/mL (≈ 0.358 µM)
- MIC (P. variatii): 0.125 µg/mL (≈ 0.358 µM)
- MIC [4]: 32 µg/mL (≈ 91.6 µM)
- MIC (Scedosporium; read-out: Minimum inhibitory concentration 100%, Scedosporium SA1, RPMI 0.165M MOPS, 24-72 hours): 1 µg/mL (≈ 2.86 µM)
- MIC (Scedosporium; read-out: Minimum inhibitory concentration 100%, Scedosporium SB1, RPMI 0.165M MOPS, 24-72 hours): 2 µg/mL (≈ 5.73 µM)
- MIC (L. prolificans): > 16 µg/mL
- MIC (Coccidioldes sp.; read-out: Minimum inhibitory concentration 100%, Coccidioldes sp. Cocci1): 0.25 µg/mL (≈ 0.716 µM)
- MIC (Coccidioldes sp.; read-out: Minimum inhibitory concentration 100%, Coccidioldes sp. Cocci2): 2 µg/mL (≈ 5.73 µM)
- MIC (Coccidioldes sp.; read-out: Minimum inhibitory concentration 100%, Coccidioldes sp. DI17-143): 0.125 µg/mL (≈ 0.358 µM)
- MIC (Rhodotorula pilimanae): 8 µg/mL (≈ 22.9 µM)
- MIC (B. dermatitidis; read-out: Minimum inhibitory concentration 100%, B. dermatitidis BD1): 0.06 µg/mL (≈ 0.172 µM)
- MIC (B. dermatitidis; read-out: Minimum inhibitory concentration 100%, B. dermatitidis BD2): ≤ 0.03 µg/mL
- MIC (B. dermatitidis; read-out: Minimum inhibitory concentration 100%, B. dermatitidis BD3): 0.125 µg/mL (≈ 0.358 µM)
- MIC (A. furnigatus; read-out: Minimum inhibitory concentration 100%, A. furnigatus AF1, RPMI 0.165M MOPS, 24-72 hours): 1 µg/mL (≈ 2.86 µM)
- MIC (A. furnigatus; read-out: Minimum inhibitory concentration 100%, A. furnigatus AF2, RPMI 0.165M MOPS, 24-72 hours): 8 µg/mL (≈ 22.9 µM)
- MIC (A. furnigatus; read-out: Minimum inhibitory concentration 100%, A. furnigatus AF3, RPMI 0.165M MOPS, 24-72 hours): 4 µg/mL (≈ 11.5 µM)

— patent US20210230203A1, “Amphiphilic Kanamycin Compositions and Methods” (priority 2020, published 2021)
